Source: US20250072423A1, “THIOPHENE ACETIC ACID FOR PLANT GROWTH REGULATION” (priority 2023, published 2025)

Key:
[1] = test system: tomato cotyledon explants; assay: Root regeneration from tomato cotyledon explants in vitro (Experiment 2); format: cell-based, tomato cultivar Roma VF; settings: 0.05 and 0.1 mg/L
Protocol: Seeds of tomato cultivar Roma VF were sterilized by treating with 75% ethanol for 30 seconds at room temperature and washed with sterile water for five times. The seeds were then treated with 15% sodium hypochlorite for 10 minutes and washed five times in sterile water. The sterilized seeds were germinated on half-strength Murashige and Skoog (MS) medium in vitro. Cotyledons from 10-day old seedlings before first true leaves emerged were used as starting explants in all the experiments. The base and tip of the cotyledons were excised and the explants were transferred with the abaxial surface in contact with the culture medium. The basic culture medium consists of MS medium with vitamins supplemented with 30 g/L sucrose and gelled with 0.8% agar, and the pH of the medium was adjusted to 5.8±0.2. Plates were maintained at a light cycle of 16/8 hours day/night, temperature of 26/24° C. day/night, and relative humidity of 70% and subcultured on the same media after 14 days. Observations were made on 7, 14, 21 and 28 days of growth. All experiments were conducted with at least three replicates of 10 explants each.
In order to analyze the effect of TAA on root regeneration, the basic media were supplemented with different concentrations of TAA (0.05 and 0.1 mg/L) and further compared with individual effect of widely used auxins (IAA, NAA, IBA, 2,4 D) at similar concentrations.

[2] = test system: tomato cotyledon explants; assay: Shoot regeneration from tomato cotyledon explants with 1 mg/L BAP (Experiment 3); format: cell-based, tomato cultivar Roma VF
Text: The sterilized seeds were germinated on half-strength Murashige and Skoog (MS) medium in vitro. Cotyledons from 10-day old seedlings before first true leaves emerged were used as starting explants in all the experiments. The base and tip of the cotyledons were excised and the explants were transferred with the abaxial surface in contact with the culture medium. The basic culture medium consists of MS medium with vitamins supplemented with 30 g/L sucrose and gelled with 0.8% agar, and the pH of the medium was adjusted to 5.8±0.2. […] All experiments were conducted with at least three replicates of 10 explants each.
To analyse the effects on shoot regeneration, the basic media was supplemented with 1 mg/L BAP and different concentrations of TAA, IAA, NAA, IBA and 2,4 D (0.05, 0.1, 0.5, 1.0 and 2.0 mg/L) individually. Since there are no previous reports on suitable concentration ranges for TAA in tomato regeneration, concentrations at 50.0, 100.0, 200.0 and 300.0 mg/L were analysed additionally for TAA.

[3] = test system: auxin-response promoter DR5
Protocol: Artificial auxin-response promoter DR5 that contains a minimal 35S promoter fused to 9 repeats of an AuxRE with strict auxin specificity and responsive to only active auxins is used to indirectly visualize auxin in plants.
To further analyze the ability of TAA to induce an auxin response in tobacco, seedlings from transgenic tobacco plants expressing reporter gene RFP (red fluorescent protein gene) under the control of DR5 promoter were treated with different concentrations of TAA and compared the pattern of RFP fluorescence to that generated by equimolar concentration of other reported auxins over time.
Induction of an auxin response by TAA was analyzed by detecting the expression of fluorescent reporter gene under the control of auxin response elements (AuxRE) in transgenic tobacco. Plant transformation vector DR5rev::erRFP carrying DsRED reporter gene under an auxin-responsive promoter was obtained from addgene (www.addgene.org, plasmid ID. 61011). The plasmid was introduced into the Agrobacterium strain LBA4404, using freeze-thaw transformation. Transgenic plants were selected on a medium containing 25 mg/L hygromycin and then verified by PCR (polymerase chain reaction). The rooted plants were grown in soil and PCR positive tobacco seedlings were used in further experiments.

WT Arabidopsis seedlings = assay: Root growth of WT Arabidopsis seedlings in the presence of NPA (Experiment 7); format: in vivo, A. thaliana; settings: 5 μM TAA added, all NPA concentrations analyzed (0.5-8 μM)
Protocol: Arabidopsis Columbia-0 wild type (WT) was used for assessing the effect of TAA on root growth and its effects on the expression of auxin-responsive genes. Seeds of A. thaliana were surface sterilized by suspending in 70% ethanol for 1 minute, followed by treatment with 10% bleach for 20 minutes. After thorough washing with sterile distilled water, the sterilized seeds were plated onto germination medium (half-strength Murashige and Skoog basal medium with vitamins (1/2 MS) medium supplemented with 1% sucrose and 0.7% plant agar) for germination. Germination was initiated by incubating the seeds in darkness at 5° C. for 2 days, followed by transfer to a light environment at 22° C. with a photoperiod of 16-h light/8-h dark for further growth. Stock solutions of TAA were prepared in DMSO (dimethyl sulfoxide). In control treatments, DMSO was used in equal amounts as present in the greatest concentration of TAA tested.
To analyze the effect of TAA on root growth in the presence of NPA (N-1-naphthylphthalamic acid), WT Arabidopsis seedlings were germinated as described and uniform-looking 8-day-old seedlings were transferred to germination medium supplemented with different concentrations of TAA (5 and 10 μM) and different concentrations of NPA (0, 0.5, 1, 2, 4, and 8 μM). The seedlings were allowed to grow for 6 days and the plates were photographed at 24 h intervals. […]

AtGH3.3 (AT2G23170) = assay: qRT-PCR of early auxin-responsive gene AtGH3.3 (Experiment 9); format: in vivo, A. thaliana; settings: 5 and 10 μM TAA, concentration and time-dependent
Protocol: (§1) To analyze TAA responsive genes in Arabidopsis, WT Arabidopsis seeds were germinated as described and 14-day-old uniform-looking seedlings were initially acclimatized in liquid germination medium for 2 hours before transferring to medium containing different concentrations of TAA (5 and 10 μM). Seedlings in media supplemented with DMSO were used as control. Five random seedlings were selected and considered as one sample and three samples from both control and treatments were flash frozen in liquid nitrogen and total RNA was isolated using a TRIzol reagent (ThermoFisher Scientific, Cat #15596026).
(§2) Expression levels of seven previously reported early auxin-responsive genes were verified by qRT-PCR (quantitative reverse transcription polymerase chain reaction). RNA reverse transcription was performed using QuantiTect Reverse Transcription Kit (Qiagen). Three biological replicates and three technical replicates were used for all qRT-PCRs. Arabidopsis actin gene (AT3G18780) was used as internal reference.

AtIAA5 (AT1G15580) = assay: qRT-PCR of early auxin-responsive gene AtIAA5 (Experiment 9); format: in vivo, A. thaliana; settings: 5 and 10 μM TAA
Protocol: as §1, §2

AtIAA19 (AT3G15540) = assay: qRT-PCR of early auxin-responsive gene AtIAA19 (Experiment 9); format: in vivo, A. thaliana; settings: 5 and 10 μM TAA
Protocol: as §1, §2

AtIAA29 (AT4G32280) = assay: qRT-PCR of early auxin-responsive gene AtIAA29 (Experiment 9); format: in vivo, A. thaliana; settings: 5 and 10 μM TAA
Protocol: as §1, §2

AtARF19, AT1G19220 = assay: qRT-PCR of early auxin-responsive gene AtARF19 (Experiment 9); format: in vivo, A. thaliana; settings: 5 and 10 μM TAA, both time points
Protocol: as §1, §2

O=C(O)Cc1ccsc1 [TAA]
root growth / root regeneration compared with known auxins ([1]; after Day 7 (FIG. 3)): performs on par with most known auxins
organogenesis from tomato cotyledon explants (root formation) ([1]; no other hormones, within 7 days): rapid root formation
time to necrosis of explants ([2]; 300 mg/L with 1 mg/L BAP): ≤ 7 days
survival of explants ([2]; 300 mg/L with 1 mg/L BAP, by Day 28): all explants were dead
shoot organogenesis ([2]; 50.0, 100.0 and 200.0 mg/L with 1 mg/L BAP): did not show any shoot or root formation
RFP after short-term treatment and withdrawal ([3]; 48 h after TAA withdrawal): detectable in roots even after 48 h of TAA withdrawal
time to auxin reporter gene expression in primary root tips ([3]; all concentrations of TAA analyzed): ≤ 30 min
spread of RFP fluorescence ([3]; by 48 h of treatment): RFP signal was observable in secondary roots
RFP signal at the root tip with increasing TAA concentrations ([3]; dose dependence): gradually increased
number of root hairs (WT Arabidopsis seedlings): increased the number of root hairs
AtGH3.3 upregulation (AtGH3.3 (AT2G23170)): over 70 fold
AtIAA5 expression (AtIAA5 (AT1G15580)): induction
AtIAA19 expression (AtIAA19 (AT3G15540)): induction
AtIAA29 expression (AtIAA29 (AT4G32280)): induction
AtARF19 expression (AtARF19, AT1G19220): upregulation
